Source: US20250082624A1, “METHODS OF TREATING COGNITIVE IMPAIRMENT” (NeuroTherapia, Inc., priority 2023, published 2025)
Read-outs that look alike come from different tables or passages of the source.

Assay: Phase 1b MAD plasma pharmacokinetics, non-compartmental analysis
Assay type: in vivo, human
Settings: human, plasma, po
From the text: Methods: All study procedures were approved by the IRB, and informed consent was obtained. Three cohorts of volunteers 45-80 years of age with well-controlled comorbidities (NOAD) and one cohort of AD patients diagnosed with cognitive impairment consistent with prodromal AD per International Working Group criteria or mild AD per National Institute on Aging—Alzheimer's Association criteria (n=6 active, 2 placebo per cohort) were enrolled. Participants were admitted to the study site for the duration of the dosing and returned 7-12 days after the last dose for a safety visit. Participants received NTRX-07 (10, 30, or 90 mg) or a placebo in a double-blinded randomization orally once daily for seven days. Subjects were assessed for changes in vital signs, including maneuvers to induce lightheadedness, electrocardiograms, 24-hour electroencephalograms (EEG), and safety laboratory studies. The second cohort returned and received a single repeat dose after a standard high-fat meal. The AD cohort also underwent cognitive testing and had blood samples for biomarkers drawn. Subjects had PK sampling done after the first and final dose of the study drug. An independent safety review committee conducted a blinded safety review of adverse events and plasma levels between each cohort.
All subjects had PK sampling done after the first and final dose of the study drug.
Raw bioanalytical data were received from Nuvisan following analysis of plasma samples from each of four cohorts. PK parameters were calculated by noncompartmental analysis using standard equations. Specifically, area under the plasma concentration versus time curve (AUC) was calculated using the trapezoid rule. Maximal plasma concentration (Cmax) and time of maximal plasma concentration (Tmax) were taken directly from the data. Clearance divided by bioavailability (Cl/F) was calculated as the dose divided by the AUC. Apparent volume of distribution over bioavailability (Vd/F) was calculated as dose divided by Cmax.
With oral administration of the dose every 24 hours for 7 days, blood samples were taken over a 24-hour interval on Days 1 and 7 and before and after dosing on Day 3.
Raw bioanalytical data were received from Nuvisan on Oct. 27, 2022. […] Specifically, area under the plasma concentration versus time curve (AUC) was calculated using the trapezoid rule. Maximal plasma concentration (Cmax) and time of maximal plasma concentration (Tmax) were taken directly from the data. Clearance divided by bioavailability (Cl/F) was calculated as the dose divided by the AUC. Apparent volume of distribution over bioavailability (Vd/F) was calculated as dose divided by Cmax.
Raw bioanalytical data were received from Nuvisan on Nov. 24, 2022. […] Specifically, area under the plasma concentration versus time curve (AUC) was calculated using the trapezoid rule. Maximal plasma concentration (Cmax) and time of maximal plasma concentration (Tmax) were taken directly from the data. Clearance divided by bioavailability (Cl/F) was calculated as the dose divided by the AUC. Apparent volume of distribution over bioavailability (Vd/F) was calculated as dose divided by Cmax.
Raw bioanalytical data were received from Nuvisan on Dec. 19, 2022. […] Specifically, area under the plasma concentration versus time curve (AUC) was calculated using the trapezoid rule. Maximal plasma concentration (Cmax) and time of maximal plasma concentration (Tmax) were taken directly from the data. Clearance divided by bioavailability (Cl/F) was calculated as the dose divided by the AUC. Apparent volume of distribution over bioavailability (Vd/F) was calculated as dose divided by Cmax.
Raw bioanalytical data were received from Nuvisan on Jun. 30, 2023. […] Specifically, area under the plasma concentration versus time curve (AUC) was calculated using the trapezoid rule. Maximal plasma concentration (Cmax) and time of maximal plasma concentration (Tmax) were taken directly from the data. […]

CC1(Cc2ccccc2)COc2cc(C(=O)N3CCCCC3)ccc21 (centres unmarked) [NTRX-07, 3-benzyl-3-methyl-2,3-dihydrobenzofuran-6-carboxylic acid-piperidine amide]
Cmax (10 mg, Table 10: Cohort A, 10 mg QD oral, Day 7, mean ± S.D., read-out: Cmax): 37.7 ± 15.9 ng/mL | Tmax (10 mg, Table 10: Cohort A, 10 mg QD oral, Day 7, mean ± S.D., read-out: Tmax): 48 ± 18 min | Vd/F (10 mg, Table 10: Cohort A, 10 mg QD oral, Day 7, mean ± S.D., read-out: Vd/F): 307 ± 126 L | Tmax (10 mg, Table 19 (interim): Cohort A, 40 mg SDD (10 mg NTRX-07) QD oral, Day 1, individual subjects, read-out: Tmax): 30 min | AUC over 24 h (AUC0-24) (10 mg, Table 19 (interim): Cohort A, 40 mg SDD (10 mg NTRX-07) QD oral, Day 1, mean ± S.D.): 93 ± 0.9 ng·h/mL | Cmax (10 mg, Table 19 (interim): Cohort A, 40 mg SDD (10 mg NTRX-07) QD oral, Day 1, mean ± S.D., read-out: Cmax): 35.6 ± 12.8 ng/mL | Tmax (10 mg, Table 19 (interim): Cohort A, 40 mg SDD (10 mg NTRX-07) QD oral, Day 1, mean ± S.D., read-out: Tmax): 42 ± 18 min | Vd/F (10 mg, Table 19 (interim): Cohort A, 40 mg SDD (10 mg NTRX-07) QD oral, Day 1, mean ± S.D., read-out: Vd/F): 1280 ± 544 L | Tmax (10 mg, Table 20 (interim): Cohort A, 40 mg SDD (10 mg NTRX-07) QD oral, Day 7, individual subjects, read-out: Tmax): 30 min | AUC over 24 h (AUC0-24) (10 mg, Table 20 (interim): Cohort A, 40 mg SDD (10 mg NTRX-07) QD oral, Day 7, mean ± S.D.): 94.4 ± 66.8 ng·h/mL | Cmax (10 mg, Table 20 (interim): Cohort A, 40 mg SDD (10 mg NTRX-07) QD oral, Day 7, mean ± S.D., read-out: Cmax): 37.7 ± 15.9 ng/mL | Tmax (10 mg, Table 20 (interim): Cohort A, 40 mg SDD (10 mg NTRX-07) QD oral, Day 7, mean ± S.D., read-out: Tmax): 48 ± 18 min | Vd/F (10 mg, Table 20 (interim): Cohort A, 40 mg SDD (10 mg NTRX-07) QD oral, Day 7, mean ± S.D., read-out: Vd/F): 1230 ± 506 L | AUC(0-t) (30 mg, Cohort B Fed, single 30 mg oral dose after high-fat meal, mean ± SD, read-out: Average of AUC24 h): 390 ± 280 ng·h/mL | Cmax (30 mg, Cohort B Fed, single 30 mg oral dose after high-fat meal, mean ± SD, read-out: Average of Cmax): 60 ± 37 ng/mL | Tmax (30 mg, Cohort B Fed, single 30 mg oral dose after high-fat meal, mean ± SD, read-out: Average of Tmax): 144 ± 108 min | Vd/F (30 mg, Cohort B Fed, single 30 mg oral dose after high-fat meal, mean ± SD, read-out: Average of Vd/F): 699 ± 424 L | AUC(0-t) (30 mg, Cohort B healthy, 30 mg QD oral, Day 1, mean ± SD, read-out: Average of AUC24 h): 328 ± 213 ng·h/mL | Cmax (30 mg, Cohort B healthy, 30 mg QD oral, Day 1, mean ± SD, read-out: Average of Cmax): 109 ± 58 ng/mL | Tmax (30 mg, Cohort B healthy, 30 mg QD oral, Day 1, mean ± SD, read-out: Average of Tmax): 54 ± 30 min | Vd/F (30 mg, Cohort B healthy, 30 mg QD oral, Day 1, mean ± SD, read-out: Average of Vd/F): 349 ± 175 L | AUC(0-t) (30 mg, Cohort B healthy, 30 mg QD oral, Day 7, mean ± SD, read-out: Average of AUC24 h): 236 ± 186 ng·h/mL | Cmax (30 mg, Cohort B healthy, 30 mg QD oral, Day 7, mean ± SD, read-out: Average of Cmax): 120 ± 79 ng/mL | Tmax (30 mg, Cohort B healthy, 30 mg QD oral, Day 7, mean ± SD, read-out: Average of Tmax): 36 ± 12 min | Vd/F (30 mg, Cohort B healthy, 30 mg QD oral, Day 7, mean ± SD, read-out: Average of Vd/F): 391 ± 235 L | AUC(0-t) (30 mg, Table 11: Cohort B, 30 mg QD oral, Day 1, mean ± S.D., read-out: AUClast): 328 ± 213 ng·h/mL | Cmax (30 mg, Table 11: Cohort B, 30 mg QD oral, Day 1, mean ± S.D., read-out: Cmax): 109 ± 58 ng/mL | Tmax (30 mg, Table 11: Cohort B, 30 mg QD oral, Day 1, mean ± S.D., read-out: Tmax): 54 ± 30 min | Vd/F (30 mg, Table 11: Cohort B, 30 mg QD oral, Day 1, mean ± S.D., read-out: Vd/F): 349 ± 175 L | Tmax (30 mg, Table 12: Cohort B, 30 mg QD oral, Day 7, individual subjects, read-out: Tmax): 30 min | AUC(0-t) (30 mg, Table 12: Cohort B, 30 mg QD oral, Day 7, mean ± S.D., read-out: AUClast): 236 ± 186 ng·h/mL | Cmax (30 mg, Table 12: Cohort B, 30 mg QD oral, Day 7, mean ± S.D., read-out: Cmax): 120 ± 79 ng/mL | Tmax (30 mg, Table 12: Cohort B, 30 mg QD oral, Day 7, mean ± S.D., read-out: Tmax): 36 ± 12 min | Vd/F (30 mg, Table 12: Cohort B, 30 mg QD oral, Day 7, mean ± S.D., read-out: Vd/F): 391 ± 234 L | AUC(0-t) (30 mg, Table 13: Cohort B Fed, 30 mg oral, fed state, mean ± S.D., read-out: AUClast): 390 ± 280 ng·h/mL | Cmax (30 mg, Table 13: Cohort B Fed, 30 mg oral, fed state, mean ± S.D., read-out: Cmax): 60 ± 37 ng/mL | Tmax (30 mg, Table 13: Cohort B Fed, 30 mg oral, fed state, mean ± S.D., read-out: Tmax): 144 ± 108 min | Vd/F (30 mg, Table 13: Cohort B Fed, 30 mg oral, fed state, mean ± S.D., read-out: Vd/F): 699 ± 424 L | AUC(0-t) (90 mg, Cohort C healthy, 90 mg QD oral, Day 1, mean ± SD, read-out: Average of AUC24 h): 1270 ± 509 ng·h/mL | Cmax (90 mg, Cohort C healthy, 90 mg QD oral, Day 1, mean ± SD, read-out: Average of Cmax): 400 ± 202 ng/mL | Tmax (90 mg, Cohort C healthy, 90 mg QD oral, Day 1, mean ± SD, read-out: Average of Tmax): 138 ± 132 min | Vd/F (90 mg, Cohort C healthy, 90 mg QD oral, Day 1, mean ± SD, read-out: Average of Vd/F): 337 ± 316 L | AUC(0-t) (90 mg, Cohort C healthy, 90 mg QD oral, Day 7, mean ± SD, read-out: Average of AUC24 h): 741 ± 357 ng·h/mL | Cmax (90 mg, Cohort C healthy, 90 mg QD oral, Day 7, mean ± SD, read-out: Average of Cmax): 189 ± 95 ng/mL | Tmax (90 mg, Cohort C healthy, 90 mg QD oral, Day 7, mean ± SD, read-out: Average of Tmax): 78 ± 60 min | AUC(0-t) (90 mg, Cohort D AD patients, 90 mg QD oral, Day 1, mean ± SD, read-out: Average of AUC24 h): 1560 ± 605 ng·h/mL | Cmax (90 mg, Cohort D AD patients, 90 mg QD oral, Day 1, mean ± SD, read-out: Average of Cmax): 478 ± 154 ng/mL | Tmax (90 mg, Cohort D AD patients, 90 mg QD oral, Day 1, mean ± SD, read-out: Average of Tmax): 66 ± 36 min | Vd/F (90 mg, Cohort D AD patients, 90 mg QD oral, Day 1, mean ± SD, read-out: Average of Vd/F): 211 ± 90 L | AUC(0-t) (90 mg, Cohort D AD patients, 90 mg QD oral, Day 7, mean ± SD, read-out: Average of AUC24 h): 806 ± 196 ng·h/mL
